Data from ChEMBL document CHEMBL4387773, “Identification of potent, selective and orally bioavailable phenyl ((R)-3-phenylpyrrolidin-3-yl)sulfone analogues as RORγt inverse agonists” (Bioorg Med Chem Lett, 2019).

Key:
Cytochrome P450 1A2 = target: T1, Cytochrome P450 1A2 (Homo sapiens, UniProt P05177); assay: Inhibition of CYP1A2 (unknown origin); type: ADME
T1 sequence (P05177 whole entry): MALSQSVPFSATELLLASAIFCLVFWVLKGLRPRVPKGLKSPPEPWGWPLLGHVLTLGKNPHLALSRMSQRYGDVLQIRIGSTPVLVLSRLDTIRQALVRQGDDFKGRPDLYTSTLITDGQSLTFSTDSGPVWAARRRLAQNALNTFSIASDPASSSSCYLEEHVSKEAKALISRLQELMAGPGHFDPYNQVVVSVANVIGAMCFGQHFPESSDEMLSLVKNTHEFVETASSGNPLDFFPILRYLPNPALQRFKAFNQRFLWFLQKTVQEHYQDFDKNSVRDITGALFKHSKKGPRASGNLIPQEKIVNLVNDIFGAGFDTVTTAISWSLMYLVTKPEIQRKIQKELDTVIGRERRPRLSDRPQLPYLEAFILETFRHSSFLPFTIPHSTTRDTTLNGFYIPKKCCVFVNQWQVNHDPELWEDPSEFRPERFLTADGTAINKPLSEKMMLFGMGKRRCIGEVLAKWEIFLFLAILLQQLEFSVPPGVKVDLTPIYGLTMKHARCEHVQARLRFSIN

[1] = target: T2, Oxysterols receptor LXR-alpha (Homo sapiens, UniProt Q13133); assay: Transactivation of human GAL4-fused LXRalpha expressed in African green monkey CV1 cells; type: cell-based
T2 sequence (Q13133 whole entry): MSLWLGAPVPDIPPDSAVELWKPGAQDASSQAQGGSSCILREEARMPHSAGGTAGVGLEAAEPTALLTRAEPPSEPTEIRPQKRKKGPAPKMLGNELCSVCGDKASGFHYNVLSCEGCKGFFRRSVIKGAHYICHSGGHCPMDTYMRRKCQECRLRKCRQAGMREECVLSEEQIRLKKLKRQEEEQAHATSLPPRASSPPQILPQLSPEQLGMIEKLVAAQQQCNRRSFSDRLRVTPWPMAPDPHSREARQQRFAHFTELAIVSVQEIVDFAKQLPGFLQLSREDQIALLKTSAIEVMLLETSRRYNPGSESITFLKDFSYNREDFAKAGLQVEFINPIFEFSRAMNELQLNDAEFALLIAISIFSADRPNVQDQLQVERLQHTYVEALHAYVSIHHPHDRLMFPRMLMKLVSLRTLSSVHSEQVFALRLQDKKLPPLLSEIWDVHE

Cytochrome P450 2D6 = Cytochrome P450 2D6 (Homo sapiens, UniProt P10635); assay: Inhibition of CYP2D6 (unknown origin); type: ADME
Chain of Cytochrome P450 2D6 (P10635 whole entry): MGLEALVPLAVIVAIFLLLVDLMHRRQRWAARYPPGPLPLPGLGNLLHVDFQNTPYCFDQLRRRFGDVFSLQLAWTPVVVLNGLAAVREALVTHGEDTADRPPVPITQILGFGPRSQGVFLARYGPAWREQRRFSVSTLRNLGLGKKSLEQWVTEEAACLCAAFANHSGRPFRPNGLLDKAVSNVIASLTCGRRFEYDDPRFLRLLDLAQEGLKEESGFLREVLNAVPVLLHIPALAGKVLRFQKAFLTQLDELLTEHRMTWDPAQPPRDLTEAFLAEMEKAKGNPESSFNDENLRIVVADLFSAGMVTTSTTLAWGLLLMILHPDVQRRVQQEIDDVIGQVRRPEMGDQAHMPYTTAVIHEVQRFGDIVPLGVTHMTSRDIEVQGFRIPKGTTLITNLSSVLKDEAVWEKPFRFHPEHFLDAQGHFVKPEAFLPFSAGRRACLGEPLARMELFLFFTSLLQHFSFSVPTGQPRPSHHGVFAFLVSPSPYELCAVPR

[2] = Tmax in Balb/c mouse at 10 mg/kg, po; type: ADME, organism-based; details: in vivo
[3] = AUC in Balb/c mouse at 10 mg/kg, po; type: ADME, organism-based; details: in vivo
[4] = target: T3, Nuclear receptor ROR-beta (Homo sapiens, UniProt Q92753); assay: Inverse agonist activity at human Gal4-fused RORbeta LBD (200 to 559 residues) expressed in human Jurkat cells measured after 18 hrs by steady-glo luciferase reporter gene assay; type: cell-based
T3 sequence (Q92753 whole entry): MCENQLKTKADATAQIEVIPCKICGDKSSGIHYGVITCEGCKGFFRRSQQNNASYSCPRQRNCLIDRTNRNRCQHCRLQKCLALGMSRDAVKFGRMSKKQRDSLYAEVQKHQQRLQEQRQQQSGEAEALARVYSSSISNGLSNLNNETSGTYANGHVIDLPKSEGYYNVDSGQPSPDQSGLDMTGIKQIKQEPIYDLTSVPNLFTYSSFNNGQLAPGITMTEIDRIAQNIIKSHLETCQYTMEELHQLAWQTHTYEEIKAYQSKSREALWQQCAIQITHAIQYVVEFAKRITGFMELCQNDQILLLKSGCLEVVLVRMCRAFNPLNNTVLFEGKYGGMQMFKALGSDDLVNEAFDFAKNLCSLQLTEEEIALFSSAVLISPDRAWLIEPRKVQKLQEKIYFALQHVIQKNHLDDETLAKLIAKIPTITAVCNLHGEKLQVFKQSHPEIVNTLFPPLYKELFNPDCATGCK

[5] = Permeability in human Caco2 cells; type: ADME, cell-based; details: Caco-2, read-out: permeability
[6] = Stability in mouse liver microsomes assessed as parent compound remaining after 10 mins; type: ADME, Microsome; details: liver microsomes, read-out: Stability
[7] = Cmax in Balb/c mouse at 10 mg/kg, po; type: ADME, organism-based; parameters: dose 10 mg/kg, route oral; details: in vivo
[8] = Stability in human liver microsomes assessed as parent compound remaining after 10 mins; type: ADME, Microsome; details: liver microsomes, read-out: Stability
[9] = target: T4, Nuclear receptor subfamily 1 group I member 2 (Homo sapiens, UniProt O75469); assay: Transactivation of PXR (unknown origin) expressed in human HepG2 cells; type: cell-based
T4 sequence (O75469 whole entry): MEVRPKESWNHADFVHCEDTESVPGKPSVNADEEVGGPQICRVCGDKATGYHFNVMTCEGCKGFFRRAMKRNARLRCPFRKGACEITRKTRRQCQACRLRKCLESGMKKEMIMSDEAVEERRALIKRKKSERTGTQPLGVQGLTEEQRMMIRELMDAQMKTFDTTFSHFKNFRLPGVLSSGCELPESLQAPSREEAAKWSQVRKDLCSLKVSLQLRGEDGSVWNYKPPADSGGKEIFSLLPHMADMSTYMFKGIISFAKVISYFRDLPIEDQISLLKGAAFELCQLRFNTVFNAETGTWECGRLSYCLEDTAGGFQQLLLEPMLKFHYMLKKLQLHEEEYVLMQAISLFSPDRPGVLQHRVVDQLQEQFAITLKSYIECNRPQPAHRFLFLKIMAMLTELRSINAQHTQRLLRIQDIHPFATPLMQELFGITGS

Cytochrome P450 2C9 = Cytochrome P450 2C9 (Homo sapiens, UniProt P11712); assay: Inhibition of CYP2C9 (unknown origin); type: ADME
Chain of Cytochrome P450 2C9 (P11712 whole entry): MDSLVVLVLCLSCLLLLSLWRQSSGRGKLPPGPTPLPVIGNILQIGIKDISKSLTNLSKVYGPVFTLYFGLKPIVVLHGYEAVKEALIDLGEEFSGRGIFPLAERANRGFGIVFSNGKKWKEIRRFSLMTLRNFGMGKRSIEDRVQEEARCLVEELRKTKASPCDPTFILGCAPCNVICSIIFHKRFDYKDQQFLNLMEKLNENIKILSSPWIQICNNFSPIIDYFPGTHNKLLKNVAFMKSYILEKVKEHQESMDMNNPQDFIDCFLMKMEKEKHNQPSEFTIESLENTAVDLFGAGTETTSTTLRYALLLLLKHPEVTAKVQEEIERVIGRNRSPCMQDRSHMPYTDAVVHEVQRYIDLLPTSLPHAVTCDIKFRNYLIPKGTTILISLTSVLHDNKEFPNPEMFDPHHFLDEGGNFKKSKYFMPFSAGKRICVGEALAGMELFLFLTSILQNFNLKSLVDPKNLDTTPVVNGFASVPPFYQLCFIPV

Cytochrome P450 3A4 = Cytochrome P450 3A4 (Homo sapiens, UniProt P08684); assay: Inhibition of CYP3A4 (unknown origin); type: ADME
Chain of Cytochrome P450 3A4 (P08684 whole entry): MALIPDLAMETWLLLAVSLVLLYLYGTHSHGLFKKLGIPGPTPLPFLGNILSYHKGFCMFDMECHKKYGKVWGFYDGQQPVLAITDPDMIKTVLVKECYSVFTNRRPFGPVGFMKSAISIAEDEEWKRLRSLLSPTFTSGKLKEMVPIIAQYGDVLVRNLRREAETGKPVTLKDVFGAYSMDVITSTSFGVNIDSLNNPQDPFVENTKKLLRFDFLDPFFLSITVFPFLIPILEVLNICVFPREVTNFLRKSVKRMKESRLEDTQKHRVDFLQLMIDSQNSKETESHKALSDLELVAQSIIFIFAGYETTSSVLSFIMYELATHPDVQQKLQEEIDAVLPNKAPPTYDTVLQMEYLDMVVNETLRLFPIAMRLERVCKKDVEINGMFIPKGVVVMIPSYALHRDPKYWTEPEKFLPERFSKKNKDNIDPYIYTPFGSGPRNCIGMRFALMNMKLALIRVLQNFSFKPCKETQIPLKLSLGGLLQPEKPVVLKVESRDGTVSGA

Cytochrome P450 2C19 = Cytochrome P450 2C19 (Homo sapiens, UniProt P33261); assay: Inhibition of CYP2C19 (unknown origin); type: ADME
Chain of Cytochrome P450 2C19 (P33261 whole entry): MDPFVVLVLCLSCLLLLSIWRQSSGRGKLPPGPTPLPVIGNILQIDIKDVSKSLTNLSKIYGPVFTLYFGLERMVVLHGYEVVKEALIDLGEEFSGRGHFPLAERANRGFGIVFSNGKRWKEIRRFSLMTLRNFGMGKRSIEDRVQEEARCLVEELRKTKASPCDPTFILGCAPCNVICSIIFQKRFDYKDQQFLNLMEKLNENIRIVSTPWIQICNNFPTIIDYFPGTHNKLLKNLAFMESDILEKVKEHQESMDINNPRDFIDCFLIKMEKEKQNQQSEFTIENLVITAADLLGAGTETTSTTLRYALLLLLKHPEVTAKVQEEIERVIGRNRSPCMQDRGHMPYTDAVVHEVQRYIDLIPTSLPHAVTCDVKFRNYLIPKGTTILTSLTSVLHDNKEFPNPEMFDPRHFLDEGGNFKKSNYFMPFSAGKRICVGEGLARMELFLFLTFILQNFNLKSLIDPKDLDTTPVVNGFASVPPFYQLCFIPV

[10] = Half life in human liver microsomes; type: ADME, Microsome

IC50 (Cytochrome P450 1A2)	EC50 [1]	IC50 (Cytochrome P450 2D6)	Tmax [2]	AUC [3]	EC50 [4]	Papp [5]	remaining at 10 min [6]	Cmax [7]	remaining at 10 min [8]	EC50 [9]	IC50 (Cytochrome P450 2C9)	IC50 (Cytochrome P450 3A4)	IC50 (Cytochrome P450 2C19)	half-life [10]	Structure (SMILES)
> 10 µM	> 7.5 µM	> 10 µM	1 h	24 µM·h	> 40 µM	15 ×10⁻⁶ cm/s	73%	6.7 µM	100%	> 50 µM	> 10 µM	> 10 µM	> 10 µM	> 2 h	O=C(O)C12CCC(C(=O)N3CC[C@](c4ccc(C(F)(C(F)(F)F)C(F)(F)F)cc4)(S(=O)(=O)c4ccc(F)cc4)C3)(CC1)CC2
> 10 µM	> 7.5 µM	> 10 µM	0.5 h	16.6 µM·h	> 40 µM	15.3 ×10⁻⁶ cm/s	83%	3.7 µM	89%	> 50 µM	> 10 µM	> 10 µM	> 10 µM	> 2 h	CC[C@]1(C(=O)N2CC[C@](c3ccc(C(F)(C(F)(F)F)C(F)(F)F)cc3)(S(=O)(=O)c3ccc(F)cc3)C2)CC[C@H](C(=O)O)CC1
